Laboratory results taken from patent US12435128B2, “Method for predicting therapeutic effect of LSD1 inhibitor based on expression of INSM1” (TAIHO PHARMACEUTICAL CO., LTD., priority 2017, dated 2025).

These molecules were tested on HEL cells (human acute myelocytic leukemia cell lines) (assay: Cell-growth inhibition test: HEL cells). Details: HEL cells; read-out: IC50 (nM), Cell-Growth Inhibition Test: HEL Cells.
Type: cell-based
Description: (§1) Under the following conditions, an in vitro cell-growth inhibition test was performed with respect to HEL cells (human acute myelocytic leukemia cell lines), NCI-H1417 cells (human small-cell lung cancer cell lines), and NCI-H146 cells (human small-cell lung cancer cell lines).
(§2) The cells with the Example compound or with dimethylsulfoxide alone were cultured at 37° C. in a 5% carbon-dioxide-containing incubator for 5 days (HEL cells) or 10 days (NCI-H1417 cells and NCI-H146 cells). After culture, the plate was allowed to stand at room temperature for 30 minutes, and 100 μL of the supernatant was removed from each well to leave 100 μL of the cell culture solution. To each well containing the remaining 100 μL of the cell culture solution, the same amount of CellTiter-Glo 2.0 Assay (Promega, Cat #: G9242) was added. The microplate was shaken with a plate mixer for 1 minute and then allowed to stand in a dark place for 10 minutes. Thereafter, the luminescence intensity of viable cells in each well was measured using a microplate reader (PerkinElmer, EnSpire). […] Cell growth rate(%)=T/C×100 • T: The luminescence intensity in a well to which the test compound was added (count per second) • C: The luminescence intensity in a well to which dimethylsulfoxide alone was added (count per second)
Work on `Cn1ncc2cc(-c3ccc(C(=O)N4[C@@H]5CC[C@H]4C[C@H](N)C5)cc3-c3ccc(C#N)c(F)c3)c(F)cc21` [Example 24, 4-[5-[(3-exo)-3-amino-8-azabicyclo[3.2.1]octane-8-carbonyl]-2-(6-fluoro-1-methyl-indazol-5-yl)phenyl]-2-fluoro-benzonitrile] yielded an IC50 of 3.5 nM.
Molecule `Cc1ccc(-c2ccc(C(=O)N3CC[C@H](N)C3)cc2-c2ccc([N+](=O)[O-])cc2)cc1` [Example 99, [(35)-3-aminopyrrolidin-1-yl]-[3-(4-nitrophenyl)-4-(p-tolyl)phenyl]methanone] has an IC50 of 11 nM.
`N#Cc1ccc(-c2cc(C(=O)N3[C@@H]4CC[C@H]3C[C@H](N)C4)ccc2-c2ccc3cccnc3c2F)cc1F` [Example 105, 4-[5-[(3-exo)-3-amino-8-azabicyclo[3.2.1]octane-8-carbonyl]-2-(8-fluoro-7-quinolyl)phenyl]-2-fluoro-benzonitrile] gave an IC50 of 5.74 nM.
`Cn1cnc2cc(-c3ccc(C(=O)N4[C@@H]5CC[C@H]4C[C@@H](N)C5)cc3-c3ccc(C#N)c(F)c3)c(F)c(F)c21` [Example 126, 4-[5-[(3-endo)-3-amino-8-azabicyclo[3.2.1]octane-8-carbonyl]-2-(6,7-difluoro-1-methyl-benzimidazol-5-yl)phenyl]-2-fluoro-benzonitrile] showed an IC50 of 5.29 nM.
For `CN1CCOc2cc(-c3ccc(C(=O)N4C5CCC4CC(N)C5)cc3-c3ccc(C#N)c(F)c3)ccc21` (stereo not drawn) [Example 128, 4-[5-[(3-endo)-3-amino-8-azabicyclo[3.2.1]octane-8-carbonyl]-2-(4-methyl-2,3-dihydro-1,4-benzoxazin-7-yl)phenyl]-2-fluoro-benzonitrile], the IC50 was 5.7 nM.
Work on `Cc1ccc(-c2ccc(C(=O)N3C4CCC3CC(N)C4)cc2-c2ccc(C#N)c(F)c2)c(F)c1F` (stereo not drawn) [Example 144, 5′-((3-endo)-3-amino-8-azabicyclo[3.2.1]octane-8-carbonyl)-2″,3,3″-trifluoro-4″-methyl-[1,1′:2′,1″-terphenyl]-4-carbonitrile] yielded an IC50 of 0.27 nM.

Same assay, conditions: Homo sapiens, HEL, read-out: IC50 (nM), Cell-Growth Inhibition Test: HEL Cells
`CC(C)(O)Cn1ccc2cc(-c3ccc(C(=O)N4[C@H]5CC[C@@H]4[C@H](N)C5)cc3-c3ccc(C#N)c(F)c3)c(F)cc21` (single isomer, unassigned; isomer-b) [Example 171] showed an IC50 of 0.08 nM.
`Cc1ccc(-c2ccc(C(=O)N3CCC4(CNC4)C3)cc2-c2ccc(C#N)cc2)cc1` [Example 5, 4-[5-(2,7-diazaspiro[3.4]octane-7-carbonyl)-2-(p-tolyl)phenyl]benzonitrile] was tested, and the IC50 was 34.8 nM.
For `N#Cc1ccc(-c2cc(C(=O)N3CC[C@H](N)C3)ccc2-c2ccc(CC3(O)CC3)cc2)cc1` [Example 59, 4-[5-[(3S)-3-aminopyrrolidine-1-carbonyl]-2-[4-[(1-hydroxycyclopropyl)methyl]phenyl]phenyl]benzonitrile], the IC50 was 32 nM.
`N#Cc1ccc(-c2cc(C(=O)N3CC[C@H](N)C3)ccc2-c2ccc(C3(C4(O)CC4)CC3)cc2)cc1` [Example 68, 4-[5-[(3S)-3-aminopyrrolidine-1-carbonyl]-2-[4-[1-(1-hydroxycyclopropyl)cyclopropyl]phenyl]phenyl]benzonitrile] gave an IC50 of 23.9 nM.
Molecule `COCCc1ccc(-c2ccc(C(=S)N3CC[C@H](N)C3)cc2-c2ccc(C#N)c(F)c2)c(F)c1` [Example 94, 4-[5-[(3S)-3-aminopyrrolidine-1-carbothioyl]-2-[2-fluoro-4-(2-methoxyethyl)phenyl]phenyl]-2-fluoro-benzonitrile] has an IC50 of 29.4 nM.
For `CN(C)c1ccc(-c2ccc(C(=O)N3CC[C@H](N)C3)cc2-c2ccc(C#N)c(F)c2)cn1` [Example 100, 4-[5-[(3S)-3-aminopyrrolidine-1-carbonyl]-2-[6-(dimethylamino)-3-pyridyl]phenyl]-2-fluoro-benzonitrile], the IC50 was 12.8 nM.
Molecule `CN1CCc2cc(-c3ccc(C(=O)N4CC[C@H](N)C4)cc3-c3ccc(C#N)c(F)c3)ccc21` [Example 117, 4-[5-[(3S)-3-aminopyrrolidine-1-carbonyl]-2-(1-methylindolin-5-yl)phenyl]-2-fluoro-benzonitrile] has an IC50 of 5.54 nM.
In the case of `CC(C)(O)Cn1ccc2cc(-c3ccc(C(=O)N4CC5CNCC5C4)cc3-c3ccc(C#N)c(F)c3)c(F)c(F)c21` (stereo not drawn) [Example 203, 2′-(6,7-difluoro-1-(2-hydroxy-2-methylpropyl)-1H-indol-5-yl)-3-fluoro-5′-(octahydropyrrolo[3,4-c]pyrrole-2-carbonyl)-[1,1′-biphenyl]-4-carbonitrile], the IC50 is reported as 2.45 nM.

Same assay, conditions: read-out: IC50 (nM), Cell-Growth Inhibition Test: HEL Cells
Molecule `Cn1cc(C(=O)O)c2cc(-c3ccc(C(=O)N4[C@@H]5CC[C@H]4[C@@H](N)C5)cc3-c3ccc(C#N)c(F)c3)c(F)cc21` (single isomer, unassigned) [Example 224] has an IC50 of 46.2 nM.
For `CC(C)n1c(=O)sc2cc(-c3ccc(C(=O)N4C5CCC4CC(N)C5)cc3-c3ccc(C#N)c(F)c3)ccc21` (stereo not drawn) [Example 138, 5′-((3-endo)-3-amino-8-azabicyclo[3.2.1]octane-8-carbonyl)-3-fluoro-2′-(3-isopropyl-2-oxo-2,3-dihydrobenzo[d]thiazol-6-yl)-[1,1′-biphenyl]-4-carbonitrile], the IC50 was 0.9 nM.
`CC(C)(C)n1nnc2cc(-c3ccc(C(=O)N4C5CCC4CC(N)C5)cc3-c3ccc(C#N)c(F)c3)c(F)cc21` (stereo not drawn) [Example 139, 5′-((3-endo)-3-amino-8-azabicyclo[3.2.1]octane-8-carbonyl)-2′-(1-(tert-butyl)-6-fluoro-1H-benzo[d][1,2,3]triazol-5-yl)-3-fluoro-[1,1′-biphenyl]-4-carbonitrile] gave an IC50 of 16.9 nM.
Work on `Cn1nnc2cc(-c3ccc(C(=O)N4[C@@H]5CC[C@H]4C[C@@H](N)C5)cc3-c3ccc(C#N)c(F)c3)c(F)c(F)c21` [Example 145, 5′-((3-endo)-3-amino-8-azabicyclo[3.2.1]octane-8-carbonyl)-2′-(6,7-difluoro-1-methyl-1H-benzo[d][1,2,3]triazol-5-yl)-3-fluoro-[1,1′-biphenyl]-4-carbonitrile] yielded an IC50 of 1.81 nM.
In the case of `CCn1nnc2cc(-c3ccc(C(=O)N4[C@@H]5CC[C@H]4C[C@H](N)C5)cc3-c3ccc(C#N)c(F)c3)c(F)cc21` [Example 160, 5′-((3-endo)-3-amino-8-azabicyclo[3.2.1]octane-8-carbonyl)-2′-(1-ethyl-6-fluoro-1H-benzo[d][1,2,3]triazol-5-yl)-3-fluoro-[1,1′-biphenyl]-4-carbonitrile], the IC50 is reported as 7.03 nM.
Molecule `COc1c(F)c(-c2ccc(C(=O)N3[C@@H]4CC[C@H]3C[C@@H](N)C4)cc2-c2ccc(C#N)c(F)c2)cc2cnn(CC(C)(C)O)c12` [Example 186, 5′-((3-endo)-3-amino-8-azabicyclo[3.2.1]octane-8-carbonyl)-3-fluoro-2′-(6-fluoro-1-(2-hydroxy-2-methylpropyl)-7-methoxy-1H-indazol-5-yl)-[1,1′-biphenyl]-4-carbonitrile] has an IC50 of 6.3 nM.
Molecule `CC(C)(O)Cn1ncc2cc(-c3ccc(C(=O)N4[C@@H]5CC[C@H]4C[C@@H](N)C5)cc3-c3ccc(C#N)c(F)c3)c(F)c(F)c21` [Example 188, 5′-((3-endo)-3-amino-8-azabicyclo[3.2.1]octane-8-carbonyl)-2′-(6,7-difluoro-1-(2-hydroxy-2-methylpropyl)-1H-indazol-5-yl)-3-fluoro-[1,1′-biphenyl]-4-carbonitrile] has an IC50 of 5.95 nM.

What follows are molecules tested on NCI-H1417 cells (human small-cell lung cancer cell lines) (assay: Cell-growth inhibition test: NCI-H1417 cells). Details: Homo sapiens, NCI-H1417, read-out: IC50 (nM), Cell-Growth Inhibition Test: NCI-H1417 Cells.
Type: cell-based
Description: as §1, §2
Work on `Cn1nnc2cc(-c3ccc(C(=O)N4CC[C@H](NC5CCC5)C4)cc3-c3ccc(C#N)c(F)c3)c(F)cc21` [Example 116, 4-[5-[(3S)-3-(cyclobutylamino)pyrrolidine-1-carbonyl]-2-(6-fluoro-1-methyl-benzotriazol-5-yl)phenyl]-2-fluoro-benzonitrile] yielded an IC50 of 29.5 nM.
Molecule `Cn1c(=O)oc2cc(-c3ccc(C(=O)N4CC[C@H](N)C4)cc3-c3ccc(C#N)c(F)c3)ccc21` [Example 119, 4-[5-[(3S)-3-aminopyrrolidine-1-carbonyl]-2-(3-methyl-2-oxo-1,3-benzooxazol-6-yl)phenyl]-2-fluoro-benzonitrile] has an IC50 of 23.9 nM.
In the case of `Cn1ccc2cc(-c3ccc(C(=O)N4CC[C@H](N)C4)cc3-c3ccc(C#N)c(F)c3)c(F)cc21` [Example 134, (S)-5′-(3-aminopyrrolidine-1-carbonyl)-3-fluoro-2′-(6-fluoro-1-methyl-1H-indol-5-yl)-[1,1′-biphenyl]-4-carbonitrile], the IC50 is reported as 0.93 nM.

Same assay, conditions: NCI-H1417 cells; read-out: IC50 (nM), Cell-Growth Inhibition Test: NCI-H1417 Cells
With `CC(C)(O)Cc1ccc(-c2ccc(C(=O)N3C4CCC3CC(N)C4)cc2-c2ccc(C#N)c(F)c2)c(F)c1` (stereo not drawn) [Example 28, 4-[5-[(3-exo)-3-amino-8-azabicyclo[3.2.1]octane-8-carbonyl]-2-[2-fluoro-4-(2-hydroxy-2-methyl-propyl)phenyl]phenyl]-2-fluoro-benzonitrile] the IC50 was 4.4 nM.
`N#Cc1ccc(-c2cc(C(=O)N3C4CCC3CC(N)C4)ccc2-c2ccc3cccnc3c2)cc1F` (stereo not drawn) [Example 107, 4-[5-[(3-exo)-3-amino-8-azabicyclo[3.2.1]octane-8-carbonyl]-2-(7-quinonyl)phenyl]-2-fluoro-benzonitrile] showed an IC50 of 18.2 nM.
`COCCc1ccc(-c2ccc(C(=O)N3C4CCC3CC(NC(C)C)C4)cc2-c2ccc(C#N)c(F)c2)c(F)c1` (stereo not drawn) [Example 112, 2-fluoro-4-[2-[2-fluoro-4-(2-methoxyethyl)phenyl]-5-[(3-exo)-3-(isopropylamino)-8-azabicyclo[3.2.1]octane-8-carbonyl]phenyl]benzonitrile] showed an IC50 of 20.5 nM.
